Tests used:
[1] = system: Patients with type 2 diabetes inadequately controlled by sulphonylurea and metformin; assay: Lipoprotein subclass particle concentrations and average particle diameters by proton NMR spectroscopy, 1-year open-label trial (test meal study); format: in vivo, human; settings: change from baseline to endpoint (week 52), type 2 diabetes patients
Description: In the context of the present invention, lipoprotein concentrations are measured according to standard nuclear magnetic resonance techniques, where the measured amplitudes of characteristic lipid methyl group signals provide particle concentrations.
In the context of the present invention, lipoprotein subclass particle concentrations and average particle diameters are measured using proton nuclear magnetic resonance spectroscopy using the algorithm of LipoScience, Inc. See e.g., Festa et al., Nuclear Magnetic Resonance Lipoprotein Abnormalities in Prediabetic Subjects in the Insulin Resistance Artherosclerosis Study, Circulation, 111:3465-3472 (2005). […]
Lipoprotein subclass particle concentrations and average particle diameters are measured using proton nuclear magnetic resonance spectroscopy. See e.g., Festa et at., Nuclear Magnetic Resonance Lipoprotein Abnormalities in Prediabetic Subjects in the Insulin Resistance Artherosclerosis Study, Circulation, 111:3465-3472 (2005).
The particle concentrations of different lipoprotein subclasses are obtained by measuring the amplitudes of the characteristic lipid methyl NMR signals. The signal amplitudes of various subclasses are extracted from the overall lipid methyl group signal with a spectral deconvolution algorithm (Lipo Science, Inc.). See e.g., Festa. VLDL and LDL particle concentrations are given in nanomoles per liter. HDL particle concentrations are provided in micromoles per liter.
Average particle sizes (in nanometers diameter) are computed as the sum of the diameter of the particle subclass multiplied by the relative mass percentage of the subclass as estimated from the amplitude of its methyl NMR signal.
Particle concentrations and sizes are compared before and after administration of an exendin or exendin agonist. See e.g., Table 1.

[2] = system: Patients with type 2 diabetes inadequately controlled by sulphonylurea and metformin; assay: Fibrinogen concentration by the von Clauss clotting method; format: in vivo, human; settings: type 2 diabetes patients
Description: For test meal data, postprandial glucose incremental AUC0-4h is calculated at baseline and week 52.
Fibrinogen activity is measured by the von Clauss clotting method. By the von Clauss clotting method, thrombin is added to a test sample and the time until clotting is measured. Fibrinogen concentration is determined by comparing clotting time for the test sample to the clotting time of a standard curve for various reference plasmas.
Fibrinogen is measured at baseline, Week 16, Week 52, or at early termination of the study.

biphasic insulin aspart 30/70
HDL Particle Size, Δ mean [1]: +0.04 nm | VLDL Particle Size, Δ mean [1]: −1.6 nm | LDL Particle Size, Δ mean ([1]; exenatide 5 μg BID 4 weeks then 10 μg BID 48 weeks vs biphasic insulin aspart 30/70): +0.11 nm | Large HDL, Δ mean ([1]; particle concentration): +1.0 μmol/L | Large LDL, Δ mean ([1]; particle concentration): +37.7 nmol/L | Small LDL, Δ mean ([1]; particle concentration): -25.8 nmol/L | Small VLDL, Δ mean ([1]; particle concentration): +8.5 nmol/L | Total HDL, Δ mean ([1]; particle concentration): +2.5 μmol/L | Total LDL, Δ mean ([1]; particle concentration): +5.0 nmol/L | Total VLDL, Δ mean ([1]; particle concentration): +12.9 nmol/L | Very Small LDL, Δ mean ([1]; particle concentration): -17.0 nmol/L | Fibrinogen level, mean, Baseline ([2]; baseline, before treatment): 4.22 g/L | Fibrinogen level, mean, Endpoint (LOCF) ([2]; endpoint, last post-baseline measurement carried forward (Week 16, Week 52 or early termination)): 4.16 g/L
